The text below walks through data of patent US9969752B2, “Inhibitors of HIF prolyl hydroxylase” (MERCK SHARP & DOHME CORP., priority 2014, dated 2018).

Structures are written as SMILES.

T1 sequence (Q9GZT9 whole entry): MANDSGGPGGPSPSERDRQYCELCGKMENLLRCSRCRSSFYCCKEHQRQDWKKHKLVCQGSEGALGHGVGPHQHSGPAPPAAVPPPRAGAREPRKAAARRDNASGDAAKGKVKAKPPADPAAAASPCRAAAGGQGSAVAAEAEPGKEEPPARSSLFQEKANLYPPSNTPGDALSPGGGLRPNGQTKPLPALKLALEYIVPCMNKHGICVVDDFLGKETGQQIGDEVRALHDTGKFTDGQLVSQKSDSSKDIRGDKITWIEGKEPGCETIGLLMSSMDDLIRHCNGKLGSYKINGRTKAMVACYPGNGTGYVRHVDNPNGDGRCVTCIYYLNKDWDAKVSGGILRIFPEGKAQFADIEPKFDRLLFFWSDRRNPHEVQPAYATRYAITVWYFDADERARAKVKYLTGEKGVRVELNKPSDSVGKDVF

The assay addresses T1, Human HIF-PHD2 (Homo sapiens, UniProt Q9GZT9).
T1 construct: FLAG-tagged full length PHD2 expressed in and purified from baculovirus-infected Sf9 cells; FLAG; made in house; host or cells: baculovirus-infected Sf9 cells
The assay can be described thus: Inhibition of the hydroxylation of a HIF peptide by PHD2 (time resolved fluorescence, 384-well). The format is biochemical. Conditions: FLAG-tagged full length PHD2; 0.2 μM 2-oxoglutarate, 0.5 μM HIF-1α peptide; 45 minutes at room temperature; read-out: Human HIF-PHD2 IC50.
On to `Cc1ccc2c3c1c(O)c(C(=O)NCC(=O)O)c(=O)n3CC(c1ccc(C(F)(F)F)cc1)O2` (stereo not shown) [Example 63, 2-(7-Hydroxy-8-methyl-5-oxo-2-(4-(trifluoromethyl)phenyl)-3,5-dihydro-2H-[1,4]oxazino[2,3,4-ij]quinoline-6-carboxamido)acetic acid], for which the IC50 is 13 nM.

With `O=C(O)CNC(=O)c1c(O)c2cccc3c2n(c1=O)CC(c1ccc(C(F)(F)F)cc1)N3` (stereo not shown) [Example 64, 2-(7-Hydroxy-5-oxo-2-(4-(trifluoromethyl)phenyl)-1,2,3,5-tetrahydropyrido[1,2,3-de]quinoxaline-6-carboxamido)acetic acid], the half-maximal inhibitory concentration (IC50) is 4.5 nM.

`CN1c2cccc3c(O)c(C(=O)NCC(=O)O)c(=O)n(c23)CC1c1ccc(C(F)(F)F)cc1` (stereo not shown) [Example 65, 2-(7-Hydroxy-1-methyl-5-oxo-2-(4-(trifluoromethyl)phenyl)-1,2,3,5-tetrahydropyrido[1,2,3-de]quinoxaline-6-carboxamido)acetic acid]: the IC50 was determined as 34 nM.

For `O=C(O)CNC(=O)c1c(O)c2cc(F)cc3c2n(c1=O)CC(c1ccc(C(F)(F)F)cc1)O3` (stereo not shown) [Example 66, 2-(9-Fluoro-7-hydroxy-5-oxo-2-(4-(trifluoromethyl)phenyl)-3,5-dihydro-2H-[1,4]oxazino[2,3,4-ij]quinoline-6-carboxamido)acetic acid], the IC50 stood at 5 nM.

Regarding `O=C(O)CNC(=O)c1c(O)c2ccc(F)c3c2n(c1=O)CC(c1ccc(C(F)(F)F)cc1)O3` (stereo not shown) [Example 67, 2-(10-Fluoro-7-hydroxy-5-oxo-2-(4-(trifluoromethyl)phenyl)-3,5-dihydro-2H-[1,4]oxazino[2,3,4-ij]quinoline-6-carboxamido)acetic acid], the IC50 was 4.3 nM.

As to `CS(=O)(=O)c1ccc(C2Cn3c(=O)c(C(=O)NCC(=O)O)c(O)c4ccc(C(F)(F)F)c(c43)O2)cc1` (stereo not shown) [Example 76, 2-(7-Hydroxy-2-(4-(methylsulfonyl)phenyl)-5-oxo-10-(trifluoromethyl)-3,5-dihydro-2H-[1,4]oxazino[2,3,4-ij]quinoline-6-carboxamido)acetic acid], the half-inhibitory concentration (IC50) stood at 1.4 nM.

As to `COc1ccc2c3c1c(O)c(C(=O)NCC(=O)O)c(=O)n3CC(c1ccc(C(F)(F)F)cc1)O2` (stereo not shown) [Example 79, 2-(7-hydroxy-8-methoxy-5-oxo-2-(4-(trifluoromethyl)phenyl)-3,5-dihydro-2H-[1,4]oxazino[2,3,4-ij]quinoline-6-carboxamido)acetic acid], the IC50 was found to be 4 nM.

As for `O=C(O)CNC(=O)c1c(O)c2c(O)ccc3c2n(c1=O)CC(c1ccc(C(F)(F)F)cc1)O3` (stereo not shown) [Example 80, 2-(7,8-dihydroxy-5-oxo-2-(4-(trifluoromethyl)phenyl)-3,5-dihydro-2H-[1,4]oxazino[2,3,4-ij]quinoline-6-carboxamido)acetic acid], the concentration for half-maximal inhibition (IC50) was 12 nM.

As for `COc1cc2c3c(c1)c(O)c(C(=O)NCC(=O)O)c(=O)n3CC(c1ccc(C(F)(F)F)cc1)O2` (stereo not shown) [Example 81, 2-(7-Hydroxy-9-methoxy-5-oxo-2-(4-(trifluoromethyl)phenyl)-3,5-dihydro-2H-[1,4]oxazino[2,3,4-ij]quinoline-6-carboxamido)acetic acid], the concentration for half-maximal inhibition (IC50) turned out to be 2.9 nM.

Turning to `O=C(O)CNC(=O)c1c(O)c2cc(O)cc3c2n(c1=O)CC(c1ccc(C(F)(F)F)cc1)O3` (stereo not shown) [Example 82, 2-(7,9-Dihydroxy-5-oxo-2-(4-(trifluoromethyl)phenyl)-3,5-dihydro-2H-[1,4]oxazino[2,3,4-ij]quinoline-6-carboxamido)acetic acid], the IC50 came to 2.7 nM.

As to `O=C(O)CNC(=O)c1c(O)c2cccc3c2n(c1=O)CC(c1ccc(C(F)(F)F)nc1)C3` (stereo not shown) [Example 83, 2-(1-Hydroxy-3-oxo-6-(6-(trifluoromethyl)pyridin-3-yl)-3,5,6,7-tetrahydropyrido[3,2,1-ij]quinoline-2-carboxamido)acetic acid], the IC50 stood at 5 nM.

As for `N#Cc1cc2c3c(c1)c(O)c(C(=O)NCC(=O)O)c(=O)n3CC(c1ccc(C(F)(F)F)nc1)C2` (stereo not shown) [Example 84, 2-(9-cyano-1-hydroxy-3-oxo-6-(6-(trifluoromethyl)pyridin-3-yl)-3,5,6,7-tetrahydropyrido[3,2,1-ij]quinoline-2-carboxamido)acetic acid], the IC50 was found to be 0.9 nM.

Turning to `CS(=O)(=O)c1cc2c3c(c1)c(O)c(C(=O)NCC(=O)O)c(=O)n3CC(c1ccc(C(F)(F)F)nc1)C2` (stereo not shown) [Example 85, 2-(1-hydroxy-9-(methylsulfonyl)-3-oxo-6-(6-(trifluoromethyl)pyridin-3-yl)-3,5,6,7-tetrahydropyrido[3,2,1-ij]quinoline-2-carboxamido)acetic acid], the IC50 came out at 0.9 nM.

Consider `N#Cc1cc2c3c(c1)c(O)c(C(=O)NCC(=O)O)c(=O)n3CC(c1ccc(C(F)(F)F)cc1)[S+]2[O-]` (stereo not shown) [Example 91, 2-(9-Cyano-7-hydroxy-1-oxido-5-oxo-2-(4-(trifluoromethyl)phenyl)-3,5-dihydro-2H-[1,4]thiazino[2,3,4-ij]quinoline-6-carboxamido)acetic acid], for which the half-maximal inhibitory concentration (IC50) is 0.839 nM.

Consider `N#Cc1cc2c3c(c1)c(O)c(C(=O)NCC(=O)O)c(=O)n3C(c1ccc(C(F)(F)F)cc1)CN2` (stereo not shown) [Example 92, 2-(9-Cyano-7-hydroxy-5-oxo-3-(4-(trifluoromethyl)phenyl)-1,2,3,5-tetrahydropyrido[1,2,3-de]quinoxaline-6-carboxamido)acetic acid], for which the 50% inhibitory concentration (IC50) worked out at 3.1 nM.

For `N#Cc1ccc2c3c1c(O)c(C(=O)NCC(=O)O)c(=O)n3CC(c1ccc(C(F)(F)F)cc1)N2` (stereo not shown) [Example 94, 2-(8-Cyano-7-hydroxy-5-oxo-2-(4-(trifluoromethyl)phenyl)-1,2,3,5-tetrahydropyrido[1,2,3-de]quinoxaline-6-carboxamido)acetic acid], the IC50 was determined as 0.8 nM.

On to `CN1CC(c2ccc(C(F)(F)F)cc2)n2c(=O)c(C(=O)NCC(=O)O)c(O)c3cc(C#N)cc1c32` (stereo not shown) [Example 95, 2-(9-Cyano-7-hydroxy-1-methyl-5-oxo-3-(4-(trifluoromethyl)phenyl)-1,2,3,5-tetrahydropyrido[1,2,3-de]quinoxaline-6-carboxamido)acetic acid], for which the IC50 amounted to 5.5 nM.

Regarding `CN1c2cc(C#N)cc3c(O)c(C(=O)NCC(=O)O)c(=O)n(c23)CC1c1ccc(C(F)(F)F)cc1` (stereo not shown) [Example 96, 2-(9-Cyano-7-hydroxy-1-methyl-5-oxo-2-(4-(trifluoromethyl)phenyl)-1,2,3,5-tetrahydropyrido[1,2,3-de]quinoxaline-6-carboxamido)acetic acid], the concentration for half-maximal inhibition (IC50) worked out at 3 nM.

As for `N#Cc1ccc2c3c1c(O)c(C(=O)NCC(=O)O)c(=O)n3CC(c1ccc(C(F)(F)F)cc1)S2` (stereo not shown) [Example 97, 2-(8-Cyano-7-hydroxy-5-oxo-2-(4-(trifluoromethyl)phenyl)-3,5-dihydro-2H-[1,4]thiazino[2,3,4-ij]quinoline-6-carboxamido)acetic acid], the half-maximal inhibitory concentration (IC50) is 1.5 nM.

Consider `O=C(O)CNC(=O)c1c(O)c2c(F)ccc3c2n(c1=O)C(c1ccc(C(F)(F)F)cc1)CS3` (stereo not shown) [Example 98, 2-(8-Fluoro-7-hydroxy-5-oxo-3-(4-(trifluoromethyl)phenyl)-3,5-dihydro-2H-[1,4]thiazino[2,3,4-ij]quinoline-6-carboxamido)acetic acid], for which the IC50 worked out at 13.7 nM.

With `N#Cc1ccc2c3c1c(O)c(C(=O)NCC(=O)O)c(=O)n3C(c1ccc(C(F)(F)F)cc1)CS2` (stereo not shown) [Example 99, 2-(8-Cyano-7-hydroxy-5-oxo-3-(4-(trifluoromethyl)phenyl)-3,5-dihydro-2H-[1,4]thiazino[2,3,4-ij]quinoline-6-carboxamido)acetic acid], the 50% inhibitory concentration (IC50) worked out at 5.1 nM.

Regarding `O=C(O)CNC(=O)c1c(O)c2cccc3c2n(c1=O)C(c1ccc(C(F)(F)F)cc1)CS3` (stereo not shown) [Example 100, 2-(7-Hydroxy-5-oxo-3-(4-(trifluoromethyl)phenyl)-3,5-dihydro-2H-[1,4]thiazino[2,3,4-ij]quinoline-6-carboxamido)acetic acid], the IC50 was determined as 32 nM.

Take `O=C(O)CNC(=O)c1c(O)c2cccc3c2n(c1=O)C(c1ccc(C(F)(F)F)cc1)CS3(=O)=O` (stereo not shown) [Example 101, 2-(7-hydroxy-1,1-dioxido-5-oxo-3-(4-(trifluoromethyl)phenyl)-3,5-dihydro-2H-[1,4]thiazino[2,3,4-ij]quinoline-6-carboxamido)acetic acid]: the IC50 was 8.6 nM.

For the compound `N#Cc1cc2c3c(c1)c(O)c(C(=O)NCC(=O)O)c(=O)n3C(c1ccc(C(F)(F)F)cc1)CS2` (stereo not shown) [Example 102, 2-(9-Cyano-7-hydroxy-5-oxo-3-(4-(trifluoromethyl)phenyl)-3,5-dihydro-2H-[1,4]thiazino[2,3,4-ij]quinoline-6-carboxamido)acetic acid], the IC50 turned out to be 5.8 nM.

With `O=C(O)CNC(=O)c1c(O)c2cccc3c2n(c1=O)CC(c1ccc(C(F)(F)F)nc1)S3` (stereo not shown) [Example 103, 2-(7-Hydroxy-5-oxo-2-(6-(trifluoromethyl)pyridin-3-yl)-3,5-dihydro-2H-[1,4]thiazino[2,3,4-ij]quinoline-6-carboxamido)acetic acid], the 50% inhibitory concentration (IC50) was determined as 3.4 nM.

Consider `O=C(O)CNC(=O)c1c(O)c2cccc3c2n(c1=O)CC(c1ccc(C(F)(F)F)nc1)S3(=O)=O` (stereo not shown) [Example 104, 2-(7-Hydroxy-1,1-dioxido-5-oxo-2-(6-(trifluoromethyl)pyridin-3-yl)-3,5-dihydro-2H-[1,4]thiazino[2,3,4-ij]quinoline-6-carboxamido)acetic acid], for which the IC50 came out at 6.3 nM.

`O=C(O)CNC(=O)c1c(O)c2cccc3c2n(c1=O)C(c1cncs1)CS3` (stereo not shown) [Example 105, 2-(7-Hydroxy-5-oxo-3-(thiazol-5-yl)-3,5-dihydro-2H-[1,4]thiazino[2,3,4-ij]quinoline-6-carboxamido)acetic acid]: the IC50 worked out at 5.1 nM.

Turning to `O=C(O)CNC(=O)c1c(O)c2cccc3c2n(c1=O)C(c1ccc(C(F)(F)F)cc1)CN3` (stereo not shown) [Example 106, 2-(7-Hydroxy-5-oxo-3-(4-(trifluoromethyl)phenyl)-1,2,3,5-tetrahydropyrido[1,2,3-de]quinoxaline-6-carboxamido)acetic acid], the 50% inhibitory concentration (IC50) was 27 nM.

As usually defined, the IC50 is the concentration at which inhibition is half-maximal.
